# Reference: patent US8710050B2, “Di and tri- substituted oxathiazine derivatives, method for the production, method for the production thereof, use thereof as medicine and drug containing said derivatives and use thereof” (Sanofi, priority 2011, dated 2014)
# Target: human 11β-HSD1 microsome fraction (Homo sapiens, UniProt P28845)
# Experiment: Enzymatic 11beta-HSD1 test (SPA-based detection)
# Format: biochemical
# Settings: [1,2-3H]-cortisone substrate, 0.25 mM NADPH, 37° C., 1 hour; read-out: IC50 (nM), Biological activity in nanomolar
# Procedure: Enzymatic 11beta-HSD1 Test:
# To measure the activity of the compounds, an SPA-based detection method (Solly et al. 2005) was employed. First of all, 20 μl of the human 11β-HSD1 microsome fraction (0.2 μg of protein), prepared in 50 mM HEPES, 0.1% BSA (w/v), were applied to a plate with 384 wells. The test compounds (0.09 μl) were applied to the assay plate in 100% DMSO. The reaction was started by addition of 20 μl of [1,2-^3H]-cortisone (0.1 μCi/[…]) in assay buffer comprising 25 mM HEPES, 100 mM KCl, 5 mM NaCl, 2 mM MgCl2 and 0.25 mM NADPH. The plate was agitated at 37° C. for 1 hour. At the same time, a stop solution comprising 20 mg/ml SPA-PVT beads, 1.6 mg/ml monoclonal cortisol antibody and 0.01 mM SSR110887 (inhibitor from the Biovitrium patent) in 50 mM HEPES, 1 M NaCl and 1 M KCl was stirred at room temperature. To stop the reaction, 25 μl of the stop solution were added to each well. The plate was agitated gently at room temperature for 1 further hour and then centrifuged at 500 gav for 1 min, in order that the SPA beads could settle out. The plate was then read in a Wallac-1450-Microbeta unit with a standard SPA program (counting time 1 min/well). The comparative compound was glycyrrhetinic acid.
# Protein and radioactive substrate were dispensed with a Biomek FX unit (Beckman Coulter) for handling liquids. The test compounds were added with a Cybi-Well equipped with a 90 nl pin tool (CyBio).
# Lit.: Solly S, Mundt S S, Zokian H J, Juy-Fang Ding G, Hermanowski-Vosatka A, Strulovici B and Zheng W. High-throughput screening of 11β-Hydroxysteroid dehydrogenase type 1 in scintillation proximity format. Assay Drug Dev Technol 2005; 3:377-384.
# human 11β-HSD1 microsome fraction, sequence (P28845 whole entry): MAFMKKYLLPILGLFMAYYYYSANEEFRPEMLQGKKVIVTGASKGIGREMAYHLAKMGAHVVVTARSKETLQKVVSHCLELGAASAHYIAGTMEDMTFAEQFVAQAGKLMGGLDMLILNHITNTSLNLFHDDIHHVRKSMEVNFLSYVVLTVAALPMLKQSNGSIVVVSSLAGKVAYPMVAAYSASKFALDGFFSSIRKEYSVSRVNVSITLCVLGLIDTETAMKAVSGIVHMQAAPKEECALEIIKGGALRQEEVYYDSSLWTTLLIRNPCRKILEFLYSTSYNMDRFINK
row,SMILES,IC50
1,"O=S1(=O)CC2(CCCC2)OC(N[C@@H](CCO)c2ccccc2)=N1 [Example 7, (S)-3-(9,9-Dioxo-6-oxa-9lambda6-thia-8-aza-spiro[4.5]dec-7-en-7-ylamino)-3-phenyl-propan-1-ol]",113 nM
2,"CC1C(C)(C)OC(NC2CCCCC2)=NS1(=O)=O (centres unmarked) [Example 1, Cyclohexyl-(5,6,6-trimethyl-4,4-dioxo-5,6-dihydro-4H-4lambda6-[1,4,3]oxathiazin-2-yl) amine]",139 nM
3,"O=S1(=O)CC2(CCCCC2)OC(NC2CCCCC2)=N1 [Example 4, Cyclohexyl-(4,4-dioxo-1-oxa-4lambda6-thia-3-azaspiro[5.5]undec-2-en-2-yl)amine]",300 nM
4,"O=S1(=O)CC2(CCCC2)OC(NC2CCCCC2)=N1 [Example 3, Cyclohexyl-(9,9-dioxo-6-oxa-9lambda6-thia-8-azaspiro[4.5]dec-7-en-7-yl)amine]",308 nM
5,"O=S1(=O)CC2(CCCCC2)OC(N[C@@H](CCO)c2ccccc2)=N1 [Example 8, (S)-3-(4,4-Dioxo-1-oxa-4lambda6-thia-3-aza-spiro[5.5]undec-2-en-2-ylamino)-3-phenyl-propan-1-ol]",66 nM

# Further lines, results first:
row,IC50,SMILES
1,128 nM,"O=S1(=O)CC2(CCC2)OC(N[C@@H](CCO)c2ccccc2)=N1 [Example 6, (S)-3-(8,8-Dioxo-5-oxa-8lambda6-thia-7-azaspiro[3.5]non-6-en-6-ylamino)-3-phenyl-propan-1-ol]"
2,307 nM,"CC1(C)CS(=O)(=O)N=C(N[C@@H](CCO)c2ccccc2)O1 [Example 5, (S)-3-(6,6-Dlmethyl-4,4-dioxo-5,6-dihydro-4H-4lambda6-[1,4,3]oxathiazin-2-ylamino)-3 phenylpropan-1-ol]"
3,399 nM,"O=S1(=O)CC2(CCC2)OC(NC2CCCCC2)=N1 [Example 2, Cyclohexyl-(8,8-dioxo-5-oxa-8lambda6-thia-7-azaspiro[3.5]non-6-en-6-yl)amine]"
